Literature values in US20100137357A1, “COMPOSITIONS AND METHODS FOR HYPERHIDROSIS” (priority 2008, published 2010).

System: serous and seromucous glands
Settings: humans, applied locally to the nasal mucosa

## CC(C)[N+]1(C)[C@@H]2CC[C@H]1CC(OC(=O)C(CO)c1ccccc1)C2.[Br-] (stereo partly shown) [ipratropium bromide]
  secretions from the serous and seromucous glands: inhibits secretions
